According to article PMC8199291 (Molecules, 2021):
Several values for one entry are separate records, joined by “and”; a condition that tells them apart may be missing. Equal entries are not always repeated. Entries after “also recorded” stand apart in the source; their conditions may differ. Where two headings read alike, the source gives them in different places.

What was measured:
human FAAH (hFAAH) = molecular target: T1, human FAAH (hFAAH) (Homo sapiens, UniProt O00519); assay: FAAH enzyme inhibition assay (Cayman inhibitor screening kit, AMC-arachidonoyl amide, fluorescence); assay type: biochemical; settings: for FAAH inhibitory activity (in words): in vitro, up to 100 μM
T1 construct: purchased Cayman Item # 10005196
T1 sequence (O00519 1-579): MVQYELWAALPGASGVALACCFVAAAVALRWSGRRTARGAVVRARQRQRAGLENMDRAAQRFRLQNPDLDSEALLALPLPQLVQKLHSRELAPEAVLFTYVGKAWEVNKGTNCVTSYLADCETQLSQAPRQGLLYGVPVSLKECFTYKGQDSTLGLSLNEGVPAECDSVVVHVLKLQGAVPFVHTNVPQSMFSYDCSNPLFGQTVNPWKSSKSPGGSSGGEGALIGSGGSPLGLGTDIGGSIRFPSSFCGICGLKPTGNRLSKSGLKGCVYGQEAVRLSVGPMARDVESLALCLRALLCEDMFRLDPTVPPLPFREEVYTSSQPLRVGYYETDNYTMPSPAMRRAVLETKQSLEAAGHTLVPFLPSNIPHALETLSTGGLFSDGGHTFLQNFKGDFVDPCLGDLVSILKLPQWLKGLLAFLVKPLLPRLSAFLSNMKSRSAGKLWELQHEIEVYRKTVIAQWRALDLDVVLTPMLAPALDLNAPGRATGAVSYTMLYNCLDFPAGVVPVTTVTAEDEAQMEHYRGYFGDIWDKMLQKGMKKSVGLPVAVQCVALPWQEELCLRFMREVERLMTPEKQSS
Experimental: The manufacturer’s protocol was followed to perform the assay. […] AMC-Arachidonoyl amide, at a concentration of 400 μM, was then used as the FAAH substrate. The samples were mixed for 30 s and incubated at 37 °C for 30 min.

human MAGL (hMAGL) = molecular target: T2, human MAGL (hMAGL) (Homo sapiens, UniProt Q99685); assay: MAGL enzyme inhibition assay (4-nitrophenylacetate hydrolysis, absorbance 405 nm); assay type: biochemical; settings: for decrease of MAGL inhibitory activity: relative to the parent compound as worded in the text (disulfiram for 2c, 2d; para substitution of 2h for 2k); for MAGL inhibitory activity (in words): in vitro; on IC50 (µM) ± SE (hMAGL): 250 µM 4-nitrophenylacetate
T2 construct: purchased Reaction Biology Corp
T2 sequence (Q99685 1-303): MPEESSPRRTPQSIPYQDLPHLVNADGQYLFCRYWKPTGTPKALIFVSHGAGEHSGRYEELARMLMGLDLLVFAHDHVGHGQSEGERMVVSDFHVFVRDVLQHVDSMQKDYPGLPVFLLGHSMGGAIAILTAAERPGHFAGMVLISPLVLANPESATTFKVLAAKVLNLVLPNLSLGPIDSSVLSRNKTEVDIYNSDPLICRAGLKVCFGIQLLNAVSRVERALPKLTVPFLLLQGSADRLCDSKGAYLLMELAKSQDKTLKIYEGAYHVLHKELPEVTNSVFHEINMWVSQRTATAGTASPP
Experimental: All of the tested compounds were prepared as 10 mM stock solutions in DMSO. […] The plate was mixed for 30 s and incubated at room temperature for 30 min.

[1] = read-out: IC50 (µM) ± SE (hFAAH)
[2] = read-out: IC50 (µM) ± SE (hMAGL)
[3] = 10-dose IC50 mode, 3-fold serial dilution, top 100 μM (JZL195 5 μM), 400 μM AMC-arachidonoyl amide, 37 °C 30 min, average of at least two experiments ± SE

IC50 (human FAAH (hFAAH); [1]) | IC50 (human MAGL (hMAGL); [2]) [µM] | IC50 (human FAAH (hFAAH); [3]) [µM] | FAAH inhibitory activity (in words) (human FAAH (hFAAH)) | SMILES | further results
36 µM and 36.2 µM | 0.95 ± 0.26 | – | – | CCN(CC)C(=S)SSC(=S)N(CC)CC [2a, Disulfiram, reference compound] | –
– | 1.89 ± 0.37 | > 100 | – | CC(C)N(C(=S)SSC(=S)N(C(C)C)C(C)C)C(C)C [2b] | –
– | 13.4 ± 4.79 | > 100 | no inhibition | CC(C)CN(CC(C)C)C(=S)SSC(=S)N(CC(C)C)CC(C)C [2d] | hydrolytic activity of MAGL inhibited by the compound upon addition of dithiothreitol (reversibility of inhibition) (human MAGL (hMAGL); absence vs presence of dithiothreitol 10 mM): restored; decrease of MAGL inhibitory activity (human MAGL (hMAGL)): up to 15 fold
25.4 ± 3.26 µM | 0.72 ± 0.2 | – | – | CCN(CCO)C(=S)SSC(=S)N(CC)CCO [2e] | –

More lines, now with the values behind:

SMILES | IC50 (human FAAH (hFAAH); [1]) | IC50 (human MAGL (hMAGL); [2]) [µM] | IC50 (human FAAH (hFAAH); [3]) [µM] | FAAH inhibitory activity (in words) (human FAAH (hFAAH)) | further results
CCCCN(CCCC)C(=S)SSC(=S)N(CCCC)CCCC [2c] | – | 7.14 ± 0.21 | > 100 | no inhibition | decrease of MAGL inhibitory activity (human MAGL (hMAGL)): up to 15 fold
CCN(CCC(=O)O)C(=S)SSC(=S)N(CC)CCC(=O)O [2f] | 12.8 ± 1.57 µM | 0.87 ± 0.21 | – | – | –
CCOC(=O)CCN(CC)C(=S)SSC(=S)N(CC)CCC(=O)OCC [2g, Bis(N-ethoxycarbonylethylethylthiocarbamoyl)disulphide] | 10 ± 0.68 µM | 3.53 ± 1.32 | – | – | MAGL inhibitory activity (in words) (human MAGL (hMAGL)): low micromolar range
CCN(Cc1ccccc1)C(=S)SSC(=S)N(CC)Cc1ccccc1 [2h] | – | 5.53 ± 2.62 | > 100 | devoid of anti-FAAH activity | –
CCN(Cc1ccc(F)cc1)C(=S)SSC(=S)N(CC)Cc1ccc(F)cc1 [2i] | – | 3.58 ± 1.54 | > 100 | devoid of anti-FAAH activity; also recorded: did not show any inhibitory activity | MAGL inhibitory activity (in words) (human MAGL (hMAGL)): low micromolar range
CCN(Cc1ccc(O)cc1)C(=S)SSC(=S)N(CC)Cc1ccc(O)cc1 [2j] | 38.3 ± 7.96 µM | 3.71 ± 1.28 | – | – | –
CCN(Cc1ccc(C(=O)O)cc1)C(=S)SSC(=S)N(CC)Cc1ccc(C(=O)O)cc1 [2k] | – | 22.6 ± 16.8 | > 100 | devoid of anti-FAAH activity | –
CCOC(=O)c1ccc(CN(CC)C(=S)SSC(=S)N(CC)Cc2ccc(C(=O)OCC)cc2)cc1 [2l, Bis(N-4-ethoxycarbonylbenzylethylthiocarbamoyl)disulphide] | – | 5.03 ± 2.35 | > 100 | devoid of anti-FAAH activity | –
S=C(SSC(=S)N(Cc1ccccc1)Cc1ccccc1)N(Cc1ccccc1)Cc1ccccc1 [2m] | – | – | > 100 | complete loss of FAAH inhibitory activity | IC50 (human MAGL (hMAGL)): 3.58 ± 0.95 µM
O=C(Oc1ccc([N+](=O)[O-])cc1)N1CCN(Cc2cccc(Oc3ccccc3)c2)CC1 [JZL-195, reference compound] | – | – | 0.04 ± 0.02 | – | –
